Source: patent publication US4740501A (priority 1985, dated 1988)

Legend:
5-78 T-lymphoma = experiment: Tumor cell survival (trypan blue), continuous exposure; type: cell-based, Rabbit
B-95-8 B-lymphoma = experiment: as above; type: cell-based, Marmorset

CCOC(=O)[C@H](CCSC)NC(=O)[C@H](Cc1cccc(N(CCCl)CCCl)c1)NC(=O)[C@@H](N)Cc1ccc(F)cc1.Cl [PTT.119, 3-(p-fluorophenyl)-L-alanyl-3-[m-bis(2-chloroethyl)aminophenyl]-L-alanyl-L-methionine ethyl ester hydrochloride]
% tumor cell survival (5-78 T-lymphoma; 5 ug/ml, 1 hr): 100%
% tumor cell survival (5-78 T-lymphoma; 5 ug/ml, 4 hr): 88%
% tumor cell survival (5-78 T-lymphoma; 5 ug/ml, 24 hr): 66%
% tumor cell survival (5-78 T-lymphoma; 10 ug/ml, 1 hr): 89%
% tumor cell survival (5-78 T-lymphoma; 10 ug/ml, 4 hr): 61%
% tumor cell survival (5-78 T-lymphoma; 10 ug/ml, 24 hr): 49%
% tumor cell survival (5-78 T-lymphoma; 25 ug/ml, 1 hr): 75%
% tumor cell survival (5-78 T-lymphoma; 25 ug/ml, 4 hr): 32%
% tumor cell survival (5-78 T-lymphoma; 25 ug/ml, 8 hr): 14%
% tumor cell survival (5-78 T-lymphoma; 25 ug/ml, 24 hr): 6%
% tumor cell survival (5-78 T-lymphoma; 50 ug/ml, 1 hr): 57%
% tumor cell survival (5-78 T-lymphoma; 50 ug/ml, 4 hr): 4%
% tumor cell survival (5-78 T-lymphoma; 50 ug/ml, 24 hr): 2%
% tumor cell survival (B-95-8 B-lymphoma; 10 ug/ml, 1 hr): 100%
% tumor cell survival (B-95-8 B-lymphoma; 10 ug/ml, 4 hr): 100%
% tumor cell survival (B-95-8 B-lymphoma; 10 ug/ml, 24 hr): 40%
% tumor cell survival (B-95-8 B-lymphoma; 25 ug/ml, 1 hr): 100%
% tumor cell survival (B-95-8 B-lymphoma; 25 ug/ml, 4 hr): 86%
% tumor cell survival (B-95-8 B-lymphoma; 25 ug/ml, 8 hr): 49%
% tumor cell survival (B-95-8 B-lymphoma; 25 ug/ml, 24 hr): 20%
% tumor cell survival (B-95-8 B-lymphoma; 50 ug/ml, 1 hr): 77%
% tumor cell survival (B-95-8 B-lymphoma; 50 ug/ml, 4 hr): 42%
% tumor cell survival (B-95-8 B-lymphoma; 50 ug/ml, 8 hr): 26%
% tumor cell survival (B-95-8 B-lymphoma; 50 ug/ml, 24 hr): 6%
